How the values were obtained:
Assay type in all cases: in vivo
[1] = tested on: Wheat plants of the "Cubus" cultivar; assay: Reduction of shoot growth in winter wheat, greenhouse test
Description: Wheat plants of the “Cubus” cultivar were cultivated in pots of diameter 12 cm on a customary growing substrate. The plants were treated at BBCH development stage 11/12 (1-2 leaves unfolded) at a shoot length of 16 cm as a foliar application with a liquid volume of 750 I/ha. Both prohexadione-Ca (“ProCa”) and trinexapac-ethyl (“TriEt”) were used as technical grade active ingredients. To prepare an applicable spray liquor, the adjuvant LI-700 (Loveland Products, Inc., Greeley, Colo., USA) was added in a concentration of 0.1%. The shoot length of the plants was measured at different times after the treatment. The following results were obtained (data in centimeters): […]

[2] = tested on: Winter wheat of the "Bussard" cultivar; assay: Reduction of shoot growth in winter wheat, field test
Description: Winter wheat of the “Bussard” cultivar was cultivated under field conditions. To “provoke” significant lodging, the supply of the nutrient element nitrogen was deliberately selected too high. The remaining growing conditions corresponded to customary practice. The plants were treated with the inventive active ingredient combination at the BBCH 31/32 development stage (1- to 2-node stage) as a foliar application with a liquid volume of 200 I/ha. Prohexadione-Ca (“ProCa”) (50 g/ha) was used as Regalis (BASF) and trinexapac-ethyl (“TriEt”) (75 g/ha) as Moddus (Syngenta). The shoot length of the plants was measured at various times from the treatment until they were ready for harvest. The following results were obtained (data in centimeters): […]

[3] = tested on: Winter wheat of the "Bussard" cultivar; assay: Degree of stem lodging in winter wheat ready for harvest, field test; settings: crops ready for harvest; for Degree of lodging: % lodged area x intensity (0-100) / 100
Description: Winter wheat of the “Bussard” cultivar was cultivated under field conditions. To “provoke” significant lodging, the supply of the nutrient element nitrogen was deliberately selected too high. The remaining growing conditions corresponded to customary practice. The plants were treated with the inventive active ingredient combination at the BBCH 31/32 development stage (1- to 2-node stage) as a foliar application with a liquid volume of 200 I/ha. Prohexadione-Ca (“ProCa”) (50 g/ha) was used as Regalis (BASF) and trinexapac-ethyl (“TriEt”) (75 g/ha) as Moddus (Syngenta). The shoot length of the plants was measured at various times from the treatment until they were ready for harvest. The following results were obtained (data in centimeters):
For crops ready for harvest from the test, the degree of stem lodging was determined. This value is the product of the percentage area in which the wheat plants are no longer upright with the intensity of lodging (0=plants are upright/100=plants lie flat on the ground) divided by 100. The values obtained here likewise lead to the conclusion of a synergistic interaction of the active ingredients involved: […]

[4] = 25 g/ha foliar, 0 days after treatment
[5] = 25 g/ha foliar, 5 days after treatment
[6] = 25 g/ha foliar, 8 days after treatment
[7] = 25 g/ha foliar, 11 days after treatment
[8] = 50 g/ha foliar, 0 days after treatment
[9] = 50 g/ha foliar, 5 days after treatment
[10] = 50 g/ha foliar, 8 days after treatment
[11] = 50 g/ha foliar, 11 days after treatment
[12] = 100 g/ha foliar, 0 days after treatment
[13] = 100 g/ha foliar, 5 days after treatment
[14] = 100 g/ha foliar, 8 days after treatment
[15] = 100 g/ha foliar, 11 days after treatment

| SMILES | shoot length [1, 4] | shoot length [1, 5] | shoot length [1, 6] | shoot length [1, 7] | shoot length [1, 8] | shoot length [1, 9] | shoot length [1, 10] | shoot length [1, 11] | shoot length [1, 12] | shoot length [1, 13] | shoot length [1, 14] | shoot length [1, 15] | further results |
| --- | --- | --- | --- | --- | --- | --- | --- | --- | --- | --- | --- | --- | --- |
| CCC(=O)C1=C([O-])CC(C(=O)[O-])CC1=O.[Ca+2] (stereo not drawn) [ProCa, prohexadione-Ca] | 16 cm | 23.0 cm | 26.6 cm | 31.1 cm | 16 cm | 23.0 cm | 26.3 cm | 29.5 cm | 16 cm | 22.5 cm | 24.0 cm | 25.8 cm | shoot length ([2]; 50 g/ha (as Regalis) foliar, 0 days after treatment): 43.0 cm; shoot length ([2]; 50 g/ha (as Regalis) foliar, 7 days after treatment): 50.0 cm; shoot length ([2]; 50 g/ha (as Regalis) foliar, 21 days after treatment): 69.3 cm; shoot length ([2]; 50 g/ha (as Regalis) foliar, 30 days after treatment): 89.0 cm; shoot length ([2]; 50 g/ha (as Regalis) foliar, 37 days after treatment): 99.5 cm; shoot length ([2]; 50 g/ha (as Regalis) foliar, 49 days after treatment): 119.8 cm; shoot length ([2]; 50 g/ha (as Regalis) foliar, 63 days after treatment): 120.0 cm; Improvement over control [%] (degree of lodging) ([3]; 50 g/ha): 11%; Improvement over control absolute (degree of lodging) ([3]; 50 g/ha): 10; Degree of lodging ([3]; 50 g/ha): 81 |
| CCOC(=O)C1CC(=O)C(=C(O)C2CC2)C(=O)C1 (stereo not drawn) [TriEt, trinexapac-ethyl] | 16 cm | 24.6 cm | 27.9 cm | 32.9 cm | 16 cm | 24.4 cm | 26.5 cm | 31.8 cm | 16 cm | 22.3 cm | 23.6 cm | 28.5 cm | shoot length ([2]; 75 g/ha (as Moddus) foliar, 0 days after treatment): 43.0 cm; shoot length ([2]; 75 g/ha (as Moddus) foliar, 7 days after treatment): 54.5 cm; shoot length ([2]; 75 g/ha (as Moddus) foliar, 21 days after treatment): 76.3 cm; shoot length ([2]; 75 g/ha (as Moddus) foliar, 30 days after treatment): 97.8 cm; shoot length ([2]; 75 g/ha (as Moddus) foliar, 37 days after treatment): 102.8 cm; shoot length ([2]; 75 g/ha (as Moddus) foliar, 49 days after treatment): 119.8 cm; shoot length ([2]; 75 g/ha (as Moddus) foliar, 63 days after treatment): 121.0 cm; Degree of lodging ([3]; 75 g/ha): 93 |
